Laboratory results as given in US6558900B2, “Regulation of apoptosis and in vitro model for studies thereof” (Emory University, priority 1996, dated 2003).

System: hamster liver nuclei
Assay: DNA fragmentation assay (HeLa S-100 incubated with hamster liver nuclei)
Type: biochemical
Conditions: 1 mM nucleotide, 37° C., 2 hr
Method: FIGS. 1A-1D illustrate dATP-dependent activation of CPP32 and DNA fragmentation in vitro. Aliquots (10 μl) of HeLa cell S-100 (50 μg) were incubated alone (lane 1), in the presence of 1 mM ATP (lane 2), or in the presence of 1 mM dATP (lane 3) at 30° C. for 1 hr in a final volume of 20 μl of buffer A. FIG. 1A, samples were subjected to SDS-PAGE and transferred to a nitrocellulose filter, probed with a monoclonal anti-CPP32 antibody, and the antigen/antibody complex was visualized by the ECL method. The filter was exposed to Kodak X-OMAT AR X-ray film for 1 min. In FIG. 1B, an aliquot of 10 μl of in vitro translated, ^35S-labeled PARP was added to each reaction. After 5 min, the samples were subjected to SDS-PAGE and transferred to a nitrocellulose filter. The filter was exposed to film for 2 hr at room temperature. In FIG. 1C, a 5 μl aliquot of in vitro translated, ^35S-labeled SREBP-2 was added to each reaction. After incubation at 30° C. for 30 min, the samples were subjected to SDS-PAGE, the gel was dried and exposed to film for 2 hr at room temperature. […]
FIGS. 2A-2B illustrate the nucleotide specificity for in vitro activation of CPP32 and DNA fragmentation. […] The DNA was isolated, analyzed by 2% agarose gel electrophoresis and visualized by ethidium bromide staining. […]

Nc1ncnc2c1ncn2[C@H]1C[C@H](O)[C@@H](COP(=O)(O)OP(=O)(O)OP(=O)(O)O)O1 [dATP, deoxyadenosine-5-triphosphate]
DNA fragmentation in hamster liver nuclei: induced DNA fragmentation
